pEC50, pKd: −log10 of the molar value. Structures can show the parent of a compound that is named as a salt.
Experiments:
[1] = test system: Glo-Response ARE-luc2P HEK293 cell line; assay: ARE luciferase reporter cell-based assay; details: average of results obtained;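 note: luciferase signal tracks Nrf2 activation of the ARE once compounds disrupt KEAP1-Nrf2 binding, read with One-Glo reagent, DMSO serving as low control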
[2] = target: Kelch domain of human KEAP1 (321-624 aa) (Homo sapiens (Human), UniProt Q14145); assay: KEAP1 KELCH ThermoFluor binding assay; details: KEAP Kelch […], 1,8-ANS, pH 7.0, average of results obtained, read-out: Tf Kd;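 note: Ligand-induced melting temperature shift of E. coli-expressed KEAP1 Kelch protein, Kd estimated from concentration-response curves of ΔTm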
Chain of Kelch domain of human KEAP1 (321-624 aa) (Q14145 321-624): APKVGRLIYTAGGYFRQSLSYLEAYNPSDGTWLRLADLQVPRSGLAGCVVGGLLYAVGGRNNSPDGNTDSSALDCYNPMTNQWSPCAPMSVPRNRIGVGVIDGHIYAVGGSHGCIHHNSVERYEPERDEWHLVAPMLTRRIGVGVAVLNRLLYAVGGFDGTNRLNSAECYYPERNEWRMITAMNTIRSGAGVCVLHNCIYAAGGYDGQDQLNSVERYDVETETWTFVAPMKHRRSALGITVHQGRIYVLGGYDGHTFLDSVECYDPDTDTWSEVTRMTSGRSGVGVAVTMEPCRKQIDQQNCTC

Question: How did the pEC50 ([1]; Homo sapiens, HEK293, 24 h) turn out when `Cc1ncc([C@@H](CC(=O)O)c2ccn3c(C(F)(F)F)nnc3c2C)cc1CN1CC2(CCOCC2)Oc2ncccc2S1(=O)=O` (single isomer, unassigned) [Example 562, (*S)-3-(5-((1′,1′-Dioxido-2,3,5,6-tetrahydrospiro[pyran-4,4′-pyrido[2,3-b][1,4,5]oxathiazepin]-2′(3′H)-yl)methyl)-6-methylpyridin-3-yl)-3-(8-methyl-3-(trifluoromethyl)-[1,2,4]triazolo[4,3-a]pyridin-7-yl)propanoic Acid] was run?
Answer: The pEC50 was 5.60.

Question: And the pKd [2]?
Answer: Its pKd is 7.83.

Question: How did the pEC50 ([1]; Homo sapiens, HEK293, 24 h) turn out when `Cc1cnc2c(c1)S(=O)(=O)N(Cc1nc([C@H](CC(=O)O)c3ccn4c(C(F)(F)F)nnc4c3C)ccc1C)C[C@@H]1CCCCN21` (single isomer, unassigned) [Example 489, (*R)-3-(8-Methyl-3-(trifluoromethyl)-[1,2,4]triazolo[4,3-a]pyridin-7-yl)-3-(5-methyl-6-(((*S)-3-methyl-5,5-dioxido-7,7a,8,9,10,11-hexahydro-6H-dipyrido[2,1-d:2′,3′-f][1,2,5]thiadiazepin-6-yl)methyl)pyridin-2-yl)propanoic Acid] was run?
Answer: The pEC50 was 7.53.

Question: And the pKd [2]?
Answer: Its pKd is greater than 9.00.

Question: `Cc1ccc([C@H](CC(=O)O)c2ccn3c(C(F)(F)F)nnc3c2C)cc1CN1CC2(CC2)Oc2ncccc2S1(=O)=O` (single isomer, unassigned) [Example 7, (*S)-3-(3-((1′,1′-Dioxidospiro[cyclopropane-1,4′-pyrido[2,3-b][1,4,5]oxathiazepin]-2′(3′H)-yl)methyl)-4-methylphenyl)-3-(8-methyl-3-(trifluoromethyl)-[1,2,4]triazolo[4,3-a]pyridin-7-yl)propanoic Acid] was tested. Which pEC50 ([1]; Homo sapiens, HEK293, 24 h) did it give?
Answer: The pEC50 was 7.13.

Question: And the pKd [2]?
Answer: The pKd was 9.90.

Question: With `Cc1ccc(C(CC(=O)O)c2ccn3c(C)nnc3c2)cc1CN1CC(C)(C)Oc2ncccc2S1(=O)=O` (racemic) [Example 160, (R/S)-3-(3-((4,4-Dimethyl-1,1-dioxido-3,4-dihydro-2H-pyrido[2,3-b][1,4,5]oxathiazepin-2-yl)methyl)-4-methylphenyl)-3-(3-methyl-[1,2,4]triazolo[4,3-a]pyridin-7-yl)propanoic Acid] as the molecule, how does the pEC50 ([1]; Homo sapiens, HEK293, 24 h) read?
Answer: Its pEC50 is 4.72.

Question: What about the pKd [2] of the same molecule?
Answer: Its pKd is greater than 9.00.

Question: How did the pEC50 ([1]; 24 hours) turn out when `Cc1ccc([C@@H](CC(=O)O)c2ccc3c(nnn3CC3CC3)c2C(F)F)cc1CN1C[C@H]2CCCCN2c2ncccc2S1(=O)=O` (single isomer, unassigned) [Example 171, (*R)-3-(1-(Cyclopropylmethyl)-4-(difluoromethyl)-1H-benzo[d][1,2,3]triazol-5-yl)-3-(3-(((*R)-5,5-dioxido-7,7a,8,9,10,11-hexahydro-6H-dipyrido[2,1-d:2′,3′-f][1,2,5]thiadiazepin-6-yl)methyl)-4-methylphenyl)propanoic Acid] was run?
Answer: The pEC50 was 7.06.

Question: What about the pKd [2] of the same molecule?
Answer: The pKd was greater than 9.00.

Question: What does the source list for `Cc1ccc([C@H](CC(=O)O)c2ccn3c(C(F)(F)F)nnc3c2C)cc1CN1CC2(CCOCC2)Oc2ncccc2S1(=O)=O` (single isomer, unassigned) [Example 432, (*S)-3-(3-((1′,1′-dioxido-2,3,5,6-tetrahydrospiro[pyran-4,4′-pyrido[2,3-b][1,4,5]oxathiazepin]-2′(3′H)-yl)methyl)-4-methylphenyl)-3-(8-methyl-3-(trifluoromethyl)-[1,2,4]triazolo[4,3-a]pyridin-7-yl)propanoic Acid]?
Answer: pEC50 ([1]; Homo sapiens, HEK293, 24 h): 6.99; pKd [2]: > 9.00

Question: What does the source list for `Cc1cnc2c(c1)S(=O)(=O)N(Cc1cc([C@H](c3ccn4c(C(F)(F)F)nnc4c3C)C(C)(C)C(=O)O)ccc1C)C[C@]1(CCOC1)O2` (single isomer, unassigned) [Example 387, (*R)-2,2-Dimethyl-3-(4-methyl-3-(((*S)-8′-methyl-1′,1′-dioxido-4,5-dihydro-2H-spiro[furan-3,4′-pyrido[2,3-b][1,4,5]oxathiazepin]-2′(3′H)-yl)methyl)phenyl)-3-(8-methyl-3-(trifluoromethyl)-[1,2,4]triazolo[4,3-a]pyridin-7-yl)propanoic Acid]?
Answer: pEC50 ([1]; Homo sapiens, HEK293, 24 h): 6.57; pKd [2]: 5.91

Question: How did the pEC50 ([1]; Homo sapiens, HEK293, 24 h) turn out when `CC[C@@H]1CN(Cc2cc(C(CC(=O)O)c3cc(OC(F)F)c4c(c3)nnn4C)ccc2C)S(=O)(=O)c2cccnc2O1` (mixture of isomers) [Example 249, 3-(7-(Difluoromethoxy)-1-methyl-1H-benzo[d][1,2,3]triazol-5-yl)-3-(3-(((R)-4-ethyl-1,1-dioxido-3,4-dihydro-2H-pyrido[2,3-b][1,4,5]oxathiazepin-2-yl)methyl)-4-methylphenyl)propanoic Acid and its Trifluoroacetic Acid Salt] was run?
Answer: Its pEC50 is 7.54.

Question: And the pKd [2]?
Answer: Its pKd is greater than 9.00.

Question: `Cc1ccc([C@@H](CC(=O)O)c2ccc3c(nnn3CC3CC3)c2C)cc1CN1C[C@@H]2CCCCN2c2ncccc2S1(=O)=O` (single isomer, unassigned) [Example 233, (*R)-3-(1-(Cyclopropylmethyl)-4-methyl-1H-benzo[d][1,2,3]triazol-5-yl)-3-(3-(((*S)-5,5-dioxido-7,7a,8,9,10,11-hexahydro-6H-dipyrido[2,1-d:2′,3′-f][1,2,5]thiadiazepin-6-yl)methyl)-4-methylphenyl)propanoic Acid] was tested. Which pEC50 ([1]; Homo sapiens, HEK293, 24 h) did it give?
Answer: The pEC50 was 7.10.

Question: And the pKd [2]?
Answer: Its pKd is greater than 9.00.

Question: What does the source list for `Cc1ccc(C(CC(=O)O)c2ccc3c(nnn3C3CC3)c2C)cc1CN1C[C@@]2(C)CCCN2c2ncccc2S1(=O)=O` (mixture of isomers) [Example 221, (R/S)-3-(1-Cyclopropyl-4-methyl-1H-benzo[d][1,2,3]triazol-5-yl)-3-(4-methyl-3-(((*R)-7a-methyl-5,5-dioxido-7a,8,9,10-tetrahydropyrido[2,3-f]pyrrolo[2,1-d][1,2,5]thiadiazepin-6(7H)-yl)methyl)phenyl)propanoic Acid]?
Answer: pEC50 ([1]; Homo sapiens, HEK293, 24 h): 6.24; pKd [2]: 7.72

Question: Which results are given for `Cc1cnc2c(c1)S(=O)(=O)N(Cc1cc([C@H](c3ccn4c(C(F)(F)F)nnc4c3C)C(C)(C)C(=O)O)ccc1C)CC1(CNC1)O2` (single isomer, unassigned) [Example 343, (*R)-2,2-Dimethyl-3-(4-methyl-3-((8′-methyl-1′,1′-dioxidospiro[azetidine-3,4′-pyrido[2,3-b][1,4,5]oxathiazepin]-2′(3′H)-yl)methyl)phenyl)-3-(8-methyl-3-(trifluoromethyl)-[1,2,4]triazolo[4,3-a]pyridin-7-yl)propanoic Acid]?
Answer: pEC50 ([1]; Homo sapiens, HEK293, 24 h): 5.80; pKd [2]: 4.49

Question: `Cc1ccc(C(CC(=O)O)c2ccn3c(C(F)F)nnc3c2C)cc1CN1CC2(COC2)Oc2ncccc2S1(=O)=O` (stereo not drawn) [Example 469, 3-(3-(Difluoromethyl)-8-methyl-[1,2,4]triazolo[4,3-a]pyridin-7-yl)-3-(3-((1′,1′-dioxidospiro[oxetane-3,4′-pyrido[2,3-b][1,4,5]oxathiazepin]-2′(3′H)-yl)methyl)-4-methylphenyl)propanoic Acid] was tested. Which pEC50 ([1]; Homo sapiens, HEK293, 24 h) did it give?
Answer: The pEC50 was 6.22.

Question: What about the pKd [2] of the same molecule?
Answer: Its pKd is greater than 9.00.

Question: How did the pEC50 ([1]; Homo sapiens, HEK293, 24 h) turn out when `COC1CCN(CCOc2nc3c(cc2C)S(=O)(=O)N(Cc2cc([C@@H](c4ccn5c(C(F)(F)F)nnc5c4C)C(C)(C)C(=O)O)ccc2C)CC2(CC2)O3)CC1` (single isomer, unassigned) [Example 378, (*S)-3-(3-((7′-(2-(4-Methoxypiperidin-1-yl)ethoxy)-8′-methyl-1′,1′-dioxidospiro[cyclopropane-1,4′-pyrido[2,3-b][1,4,5]oxathiazepin]-2′(3′H)-yl)methyl)-4-methylphenyl)-2,2-dimethyl-3-(8-methyl-3-(trifluoromethyl)-[1,2,4]triazolo[4,3-a]pyridine-7-yl)propanoic Acid] was run?
Answer: Its pEC50 is 8.40.

Question: What about the pKd [2] of the same molecule?
Answer: Its pKd is greater than 9.00.

Question: `Cc1ccc(C(c2ccn3c(C(F)(F)F)nnc3c2C)C(C)(C)C(=O)O)cc1CN1CC2(CCOCC2)Oc2nc(N[C@@H](C)CCO)ccc2S1(=O)=O` (stereo partly drawn) [Example 118] was tested. Which pEC50 ([1]; Homo sapiens, HEK293, 24 h) did it give?
Answer: The pEC50 was 6.49.

Question: What about the pKd [2] of the same molecule?
Answer: The pKd was greater than 9.00.

Question: With `Cc1ccc([C@@H](c2ccn3c(C(F)(F)F)nnc3c2C)C(C)(C)C(=O)O)cc1CN1CC2(CC2)Oc2nc(OCCN3CCCCC3)c(C)cc2S1(=O)=O` (single isomer, unassigned) [Example 372, (*S)-2,2-Dimethyl-3-(4-methyl-3-((8′-methyl-1′,1′-dioxido-7′-(2-(piperidin-1-yl)ethoxy)spiro[cyclopropane-1,4′-pyrido[2,3-b][1,4,5]oxathiazepin]-2′(3′H)-yl)methyl)phenyl)-3-(8-methyl-3-(trifluoromethyl)-[1,2,4]triazolo[4,3-a]pyridine-7-yl)propanoic Acid] as the molecule, how does the pEC50 ([1]; Homo sapiens, HEK293, 24 h) read?
Answer: Its pEC50 is 8.54.

Question: What about the pKd [2] of the same molecule?
Answer: Its pKd is greater than 9.00.

Question: What does the source list for `Cc1ccc(C(CC(=O)O)c2ccn3c(C(F)(F)F)nnc3c2C)cc1CN1C[C@@H]2CCCCN2c2ncccc2S1(=O)=O` (stereo in doubt) [Example 289, 3-(3-(((*S)-5,5-Dioxido-7,7a,8,9,10,11-hexahydro-6H-dipyrido[2,1-d:2′,3′-f][1,2,5]thiadiazepin-6-yl)methyl)-4-methylphenyl)-3-(8-methyl-3-(trifluoromethyl)-[1,2,4]triazolo[4,3-a]pyridin-7-yl)propanoic Acid]?
Answer: pEC50 ([1]; Homo sapiens, HEK293, 24 h): 7.71; pKd [2]: > 9.00

Question: With `CCn1nnc2c(C)c(C(c3cnc(C)c(CN4CC5(CCOCC5)Oc5ncc(C)cc5S4(=O)=O)c3)C(C)(C)C(=O)O)ccc21` (racemic) [Example 61, (R/S)-3-(1-Ethyl-4-methyl-1H-benzo[d][1,2,3]triazol-5-yl)-2,2-dimethyl-3-(6-methyl-5-((8′-methyl-1′,1′-dioxido-2,3,5,6-tetrahydrospiro[pyran-4,4′-pyrido[2,3-b][1,4,5]oxathiazepin]-2′(3′H)-yl)methyl)pyridin-3-yl)propanoic Acid] as the molecule, how does the pEC50 ([1]; Homo sapiens, HEK293, 24 h) read?
Answer: Its pEC50 is 7.38.

Question: What about the pKd [2] of the same molecule?
Answer: Its pKd is greater than 9.00.

Question: What does the source list for `Cc1ccc(C(CC(=O)O)c2ccn3c(C(F)(F)F)nnc3c2C)nc1CN1CC2(CC2)Oc2ncccc2S1(=O)=O` (racemic) [Example 481, (R/S)-3-(6-((1′,1′-Dioxidospiro[cyclopropane-1,4′-pyrido[2,3-b][1,4,5]oxathiazepin]-2′(3′H)-yl)methyl)-5-methylpyridin-2-yl)-3-(8-methyl-3-(trifluoromethyl)-[1,2,4]triazolo[4,3-a]pyridin-7-yl)propanoic Acid]?
Answer: pEC50 ([1]; Homo sapiens, HEK293, 24 h): 5.89; pKd [2]: > 9.00

— patent US10947252B2, “Inhibitors of KEAP1-Nrf2 protein-protein interaction” (Janssen Pharmaceutica NV, priority 2018, dated 2021)
